The nature of one data set: Carotenoid content in fish flesh of silver salmon by HPLC. The class given is in vivo, Oncorhynchus kisutch. The settings on record: Fermented product division, silver salmon fish flesh, 6 months. How it is done: In the examples, the quantification of the carotenoid colorant was performed using high performance liquid chromatography (HPLC). Two columns of Wakosil-II 5 SIL-100 φ4.6×250 mm (produced by Wako Pure Chemical Industries, Ltd.) were connected to each other. An n-hexane:tetrahydrofuran:methanol (40:20:1) mixed solution was used as a mobile phase. A constant room temperature and a flow rate of 1.0 ml/min were used. The detection was performed at a wavelength of 470 nm. The feed or fish flesh was milled, and then the colorant was extracted with a tetrahydrofuran:methanol (20:1) mixed solution. The colorant was appropriately diluted with the mobile phase and analyzed by HPLC. 300 silver salmons (Oncorhynchus kisutch) each weighing about 200 g were cultivated as a test division of being fed with the above-described fermented product, and another 300 silver salmons each weighing about 200 g were cultivated as a test division of being fed with the above-described synthetic product. The salmons were fed in satiation in a marine fish pen for 6 months. After the 6 months of cultivating, 10 fish of each test division were weighed. […] The fish were immediately killed by cutting medulla and frozen for preservation. After being thawed, the fish flesh was milled by a coffee mill, and a part thereof was put into a polyethylene bag to measure the color tone thereof by a spectrometer CM-508i (Minolta). […] From a part of the milled fish flesh, the carotenoid colorant was extracted, and analyzed in terms of the content of each carotenoid compound by HPLC.
As for `CC1=C(/C=C/C(C)=C/C=C/C(C)=C/C=C/C=C(C)/C=C/C=C(C)/C=C/C2=C(C)C(=O)[C@@H](O)CC2(C)C)C(C)(C)C[C@H](O)C1` [Adonixanthin], the Ratio to astaxanthin came to 23.1%.

Consider `CC1=C(/C=C/C(C)=C/C=C/C(C)=C/C=C/C=C(C)/C=C/C=C(C)/C=C/C2=C(C)C(=O)[C@@H](O)CC2(C)C)C(C)(C)C[C@H](O)C1=O` [Astaxanthin], for which the Ratio to astaxanthin is given as 100%.

The data set is the same for the next values; noted with them: Fermented product division, silver salmon, 6 months, average of 10 fish.
Turning to `CC1=C(/C=C/C(C)=C/C=C/C(C)=C/C=C/C=C(C)/C=C/C=C(C)/C=C/C2=C(C)C(=O)[C@@H](O)CC2(C)C)C(C)(C)C[C@H](O)C1` [Adonixanthin], the “Content in fish flesh” value was determined as 2.4 mg/kg.

Staying with this data set, now noted: Synthetic product division, silver salmon, 6 months, average of 10 fish.
With `CC1=C(/C=C/C(C)=C/C=C/C(C)=C/C=C/C=C(C)/C=C/C=C(C)/C=C/C2=C(C)C(=O)[C@@H](O)CC2(C)C)C(C)(C)C[C@H](O)C1` [Adonixanthin], the “Content in fish flesh” value is recorded as 0.02 or less mg/kg.

Staying with this data set, now noted: silver salmon (Oncorhynchus kisutch), fish flesh, oral, 43.2 mg/kg feed, Fermented product division, silver salmon, average of 10 fish.
Compound `CC1=C(/C=C/C(C)=C/C=C/C(C)=C/C=C/C=C(C)/C=C/C=C(C)/C=C/C2=C(C)C(=O)[C@@H](O)CC2(C)C)C(C)(C)C[C@H](O)C1=O` [Astaxanthin] had a concentration at 6 months of 10400 ng/g.

Staying with this data set, now noted: silver salmon (Oncorhynchus kisutch), fish flesh, oral, 44.3 mg/kg feed, Synthetic product division, silver salmon, average of 10 fish.
The compound `CC1=C(/C=C/C(C)=C/C=C/C(C)=C/C=C/C=C(C)/C=C/C=C(C)/C=C/C2=C(C)C(=O)[C@@H](O)CC2(C)C)C(C)(C)C[C@H](O)C1=O` [Astaxanthin] gave a concentration at 6 months of 12700 ng/g.

The next data set can be described thus: Carotenoid content in fish flesh of rainbow trout by HPLC. The class given is in vivo, Oncorhynchus mykiss. The settings on record: Fermented product division, rainbow trout fish flesh, 3 months. The procedure: In the examples, the quantification of the carotenoid colorant was performed using high performance liquid chromatography (HPLC). Two columns of Wakosil-II 5 SIL-100 φ4.6×250 mm (produced by Wako Pure Chemical Industries, Ltd.) were connected to each other. An n-hexane:tetrahydrofuran:methanol (40:20:1) mixed solution was used as a mobile phase. A constant room temperature and a flow rate of 1.0 ml/min were used. The detection was performed at a wavelength of 470 nm. The feed or fish flesh was milled, and then the colorant was extracted with a tetrahydrofuran:methanol (20:1) mixed solution. The colorant was appropriately diluted with the mobile phase and analyzed by HPLC. 50 rainbow trouts (Oncorhynchus mykiss) each weighing about 100 g were cultivated in a water tank as a test division of being fed with the above-described fermented product, and another 50 rainbow trouts each weighing about 100 g were cultivated in a water tank as a test division of being fed with the above-described synthetic product. The trouts of each test division were fed in satiation in fresh water for 3 months. After the 3 months of cultivating, 12 fish of each test division were weighed. […] The fish were immediately killed by cutting medulla. […] After the measurement, the fish flesh was frozen for preservation. After being thawed, the fish flesh of the 12 fish of each test division was analyzed in terms of the content of each carotenoid compound.
For the compound `CC1=C(/C=C/C(C)=C/C=C/C(C)=C/C=C/C=C(C)/C=C/C=C(C)/C=C/C2=C(C)C(=O)[C@@H](O)CC2(C)C)C(C)(C)C[C@H](O)C1` [Adonixanthin], the Ratio to astaxanthin is 2.9%.

Turning to `CC1=C(/C=C/C(C)=C/C=C/C(C)=C/C=C/C=C(C)/C=C/C=C(C)/C=C/C2=C(C)C(=O)[C@@H](O)CC2(C)C)C(C)(C)C[C@H](O)C1=O` [Astaxanthin], the Ratio to astaxanthin came out at 100%.

Staying with this data set, now noted: Fermented product division, rainbow trout, 3 months, average of 12 fish.
Take `CC1=C(/C=C/C(C)=C/C=C/C(C)=C/C=C/C=C(C)/C=C/C=C(C)/C=C/C2=C(C)C(=O)[C@@H](O)CC2(C)C)C(C)(C)C[C@H](O)C1` [Adonixanthin]: the “Content in fish flesh” value is reported as 0.1 mg/kg.

The data set is the same for the next values; noted with them: Synthetic product division, rainbow trout, 3 months, average of 12 fish.
In the case of `CC1=C(/C=C/C(C)=C/C=C/C(C)=C/C=C/C=C(C)/C=C/C=C(C)/C=C/C2=C(C)C(=O)[C@@H](O)CC2(C)C)C(C)(C)C[C@H](O)C1` [Adonixanthin], the “Content in fish flesh” value was 0.02 or less mg/kg.

Still in this data set, the particulars now being: rainbow trout (Oncorhynchus mykiss), fish flesh, oral, 63.2 mg/kg feed, Fermented product division, rainbow trout, average of 12 fish.
For `CC1=C(/C=C/C(C)=C/C=C/C(C)=C/C=C/C=C(C)/C=C/C=C(C)/C=C/C2=C(C)C(=O)[C@@H](O)CC2(C)C)C(C)(C)C[C@H](O)C1=O` [Astaxanthin], the concentration at 3 months was 3400 ng/g.

Still in this data set, the particulars now being: rainbow trout (Oncorhynchus mykiss), fish flesh, oral, 64.6 mg/kg feed, Synthetic product division, rainbow trout, average of 12 fish.
Take `CC1=C(/C=C/C(C)=C/C=C/C(C)=C/C=C/C=C(C)/C=C/C=C(C)/C=C/C2=C(C)C(=O)[C@@H](O)CC2(C)C)C(C)(C)C[C@H](O)C1=O` [Astaxanthin]: the concentration at 3 months was found to be 6300 ng/g.

Another data set can be described thus: Carotenoid content in fish flesh of Atlantic salmon by HPLC. Format: in vivo, Salmo salar. The settings on record: Atlantic salmon (Salmo salar), oral, 79.8 mg/kg feed, Fermented product division, Atlantic salmon, flesh frozen 1 month, average of 20 fish. The procedure:
In the examples, the quantification of the carotenoid colorant was performed using high performance liquid chromatography (HPLC). Two columns of Wakosil-II 5 SIL-100 φ4.6×250 mm (produced by Wako Pure Chemical Industries, Ltd.) were connected to each other. An n-hexane:tetrahydrofuran:methanol (40:20:1) mixed solution was used as a mobile phase. A constant room temperature and a flow rate of 1.0 ml/min were used. The detection was performed at a wavelength of 470 nm. The feed or fish flesh was milled, and then the colorant was extracted with a tetrahydrofuran:methanol (20:1) mixed solution. The colorant was appropriately diluted with the mobile phase and analyzed by HPLC. 400 Atlantic salmons (Salmo salar) each weighing about 300 g were cultivated as a test division of being fed with the above-described fermented product, and another 400 Atlantic salmons each weighing about 300 g were cultivated as a test division of being fed with the above-described synthetic product. The salmons were fed in satiation in a marine fish pen for 12 months. After the 12 months of cultivating, 20 fish of each test division were landed and weighed. […] The fish were immediately killed by cutting medulla, and the fish flesh was measured in terms of the color tone by a spectrometer. […] After the measurement, the fish flesh was frozen for preservation for 1 month. After being thawed, the fish flesh of the 20 fish of each test division was analyzed in terms of the content of each carotenoid compound.
`CC1=C(/C=C/C(C)=C/C=C/C(C)=C/C=C/C=C(C)/C=C/C=C(C)/C=C/C2=C(C)C(=O)[C@@H](O)CC2(C)C)C(C)(C)C[C@H](O)C1=O` [Astaxanthin] showed a concentration at 12 months of 4100 ng/g.

The data set is the same for the next values; noted with them: Atlantic salmon (Salmo salar), oral, 81.6 mg/kg feed, Synthetic product division, Atlantic salmon, flesh frozen 1 month, average of 20 fish.
`CC1=C(/C=C/C(C)=C/C=C/C(C)=C/C=C/C=C(C)/C=C/C=C(C)/C=C/C2=C(C)C(=O)[C@@H](O)CC2(C)C)C(C)(C)C[C@H](O)C1=O` [Astaxanthin]: the concentration at 12 months came out at 6200 ng/g.

Staying with this data set, now noted: Fermented product division, Atlantic salmon fish flesh, 12 months.
As for `CC1=C(/C=C/C(C)=C/C=C/C(C)=C/C=C/C=C(C)/C=C/C=C(C)/C=C/C2=C(C)C(=O)[C@@H](O)CC2(C)C)C(C)(C)C[C@H](O)C1` [Adonixanthin], the Ratio to astaxanthin worked out at 4.9%.

As to `CC1=C(/C=C/C(C)=C/C=C/C(C)=C/C=C/C=C(C)/C=C/C=C(C)/C=C/C2=C(C)C(=O)[C@@H](O)CC2(C)C)C(C)(C)C[C@H](O)C1=O` [Astaxanthin], the Ratio to astaxanthin was found to be 100%.

Staying with this data set, now noted: Fermented product division, Atlantic salmon, 12 months, flesh frozen 1 month, average of 20 fish.
`CC1=C(/C=C/C(C)=C/C=C/C(C)=C/C=C/C=C(C)/C=C/C=C(C)/C=C/C2=C(C)C(=O)[C@@H](O)CC2(C)C)C(C)(C)C[C@H](O)C1` [Adonixanthin]: the “Content in fish flesh” value is recorded as 0.2 mg/kg.

Staying with this data set, now noted: Synthetic product division, Atlantic salmon, 12 months, flesh frozen 1 month, average of 20 fish.
For `CC1=C(/C=C/C(C)=C/C=C/C(C)=C/C=C/C=C(C)/C=C/C=C(C)/C=C/C2=C(C)C(=O)[C@@H](O)CC2(C)C)C(C)(C)C[C@H](O)C1` [Adonixanthin], the “Content in fish flesh” value is reported as 0.02 or less mg/kg.

A further data set in a line: Carotenoid content in fish flesh of king salmon by HPLC. The class given is in vivo, Oncorhynchus tshawytscha. The settings on record: Fermented product division, king salmon fish flesh, 3 months. The procedure: In the examples, the quantification of the carotenoid colorant was performed using high performance liquid chromatography (HPLC). Two columns of Wakosil-II 5 SIL-100 φ4.6×250 mm (produced by Wako Pure Chemical Industries, Ltd.) were connected to each other. An n-hexane:tetrahydrofuran:methanol (40:20:1) mixed solution was used as a mobile phase. A constant room temperature and a flow rate of 1.0 ml/min were used. The detection was performed at a wavelength of 470 nm. The feed or fish flesh was milled, and then the colorant was extracted with a tetrahydrofuran:methanol (20:1) mixed solution. The colorant was appropriately diluted with the mobile phase and analyzed by HPLC. 100 king salmons (Oncorhynchus tshawytscha) each weighing about 200 g were cultivated as a test division of being fed with the above-described fermented product, and another 100 king salmons each weighing about 200 g were cultivated as a test division of being fed with the above-described synthetic product. The salmons were fed in satiation in a marine fish pen for 3 months. After the 3 months of cultivating, 15 fish of each test division were sampled and weighed. […] The fish were immediately killed by cutting medulla. […] After the measurement, the fish flesh was frozen for preservation for 1 month. After being thawed, the fish flesh of the fish of each test division was analyzed in terms of the content of each carotenoid compound.
On to `CC1=C(/C=C/C(C)=C/C=C/C(C)=C/C=C/C=C(C)/C=C/C=C(C)/C=C/C2=C(C)C(=O)[C@@H](O)CC2(C)C)C(C)(C)C[C@H](O)C1` [Adonixanthin], for which the Ratio to astaxanthin is 6.5%.

For `CC1=C(/C=C/C(C)=C/C=C/C(C)=C/C=C/C=C(C)/C=C/C=C(C)/C=C/C2=C(C)C(=O)[C@@H](O)CC2(C)C)C(C)(C)C[C@H](O)C1=O` [Astaxanthin], the Ratio to astaxanthin is 100%.

The same data set, now with this note: Fermented product division, king salmon, 3 months, flesh frozen 1 month, average of 15 fish.
`CC1=C(/C=C/C(C)=C/C=C/C(C)=C/C=C/C=C(C)/C=C/C=C(C)/C=C/C2=C(C)C(=O)[C@@H](O)CC2(C)C)C(C)(C)C[C@H](O)C1` [Adonixanthin]: the “Content in fish flesh” value was 0.3 mg/kg.

Staying with this data set, now noted: Synthetic product division, king salmon, 3 months, flesh frozen 1 month, average of 15 fish.
With `CC1=C(/C=C/C(C)=C/C=C/C(C)=C/C=C/C=C(C)/C=C/C=C(C)/C=C/C2=C(C)C(=O)[C@@H](O)CC2(C)C)C(C)(C)C[C@H](O)C1` [Adonixanthin], the “Content in fish flesh” value is 0.02 or less mg/kg.

The data set is the same for the next values; noted with them: king salmon (Oncorhynchus tshawytscha), oral, 70.3 mg/kg feed, Synthetic product division, king salmon, flesh frozen 1 month, average of 15 fish.
For the compound `CC1=C(/C=C/C(C)=C/C=C/C(C)=C/C=C/C=C(C)/C=C/C=C(C)/C=C/C2=C(C)C(=O)[C@@H](O)CC2(C)C)C(C)(C)C[C@H](O)C1=O` [Astaxanthin], the concentration at 3 months is 7200 ng/g.

Staying with this data set, now noted: king salmon (Oncorhynchus tshawytscha), oral, 72.7 mg/kg feed, Fermented product division, king salmon, flesh frozen 1 month, average of 15 fish.
On to `CC1=C(/C=C/C(C)=C/C=C/C(C)=C/C=C/C=C(C)/C=C/C=C(C)/C=C/C2=C(C)C(=O)[C@@H](O)CC2(C)C)C(C)(C)C[C@H](O)C1=O` [Astaxanthin], for which the concentration at 3 months was 4600 ng/g.

(Values after patent publication US8999664B2, “Method of improving salmon meat color” (JX Nippon Oil & Energy Corporation, priority 2006, dated 2015).)
